Tests used:
herpes lesions = test: Control group: patients with concurrent herpes lesions, one treated iontophoretically, the other by repeated topical application of the same agent; type: in vivo, human; conditions: for Major Response (count), Control lesion / No Response (count), Control lesion / Some Response (count), Control lesion: repeated unassisted topical application of the same antiviral agent; for Major Response (count), Treated lesion / No Response (count), Treated lesion / Some Response (count), Treated lesion: iontophoretically treated lesion, single 10-15 minute treatment; for Outcome of unassisted topically treated lesions: repeated topical application, compared with resolution in 24 hours; for Outcome of iontophoretically treated lesions: single 10-15 minute iontophoretic treatment, all treated lesions
Experimental: The study included a control situation wherein seven patients were found who had simultaneous concurrent herpes lesions at separate locations on their bodies. In each case, one lesion was treated with iontophoretic application of antiviral agent (Acyclovir® or IUDR) and the other lesion was treated in the standard method employed in the prior art comprising repeated topical application of the same antiviral agent.
(§1) The clinical studies included patient volunteers with full informed consent who suffered from recurrent cold sores. […] The treatment incorporated an electrode saturated with Acyclovir® ointment (ZOVIRAX®) or IUDR (STOXIL®) ophthalmic drops as supplied by the manufacturer. Thus mounted Anodic electrode of the prototype system was used for a 10-15 minute application directly to the lesion with the average current setting of 0.2 ma-0.6 ma which was well tolerated by all patients.
(§2) The lesion was evaluated in 24 hours. In 92% of the iontophoretically treated cases (>70 lesions treated) a major response was noted. A major response was categorized by resolution of pain in <6 hours and lesion crusted and healing within 24 hours. The normal course of cold sores involves an average period of 10-12 days before resolution and healing occurs. The present apparatus and clinical method for treatment of mucocutaneous Herpes Simplex (Type I and Type II) eruptions presented herein have been described and performed with excellent results. This novel user-friendly apparatus in combination with the disclosed clinical treatment method presents a very effective new treatment for Herpes Simplex eruptions.

[1] = test system: mucocutaneous Herpes Simplex (Type I and Type II) eruptions; test: Clinical study: iontophoretic application of antiviral agent to herpes lesions (Stage 1 treatment); type: in vivo, human; conditions: for No response (count, Stage 1 treatment results) / Some response (count, Stage 1 treatment results): iontophoretic 10-15 minute application to lesion, 0.2 ma-0.6 ma, evaluated in 24 hours; for Major response (count, Stage 1 treatment results): iontophoretic 10-15 minute application, major response = resolution of pain in <6 hours and lesion crusted and healing within 24 hours
Excerpt: The inventor has conducted a clinical study using a prototype iontophoretic device in accordance with the present invention for the treatment of cold sores. The clinical response was promising. A second independent, qualified investigator, a board-certified Urologist, conducted a study using the present apparatus and method for treating male genital herpes lesions with encouraging results. Table 1 summarizes data (discussed below) supporting the claim to unexpected clinical benefits treating disease with this novel method. The method and medicament application device when used together for treating these common, embarrassing, and previously not easily-treatable ailments provide surprising advantages.
The embodiment of the device shown in FIG. 1 and described hereinabove is an improvement over the prototype used in the clinical study, which was a larger unit, not user-friendly, which required physically connecting wires to the patient's body which created anxiety, and could not be used without attending personnel. Notwithstanding design, the apparatus used in the clinical study summarized in Table 1 employed electronics similar to the apparatus described herein and was used to optimize the clinical performance of the embodiment 12 of the device described herein.
as §1, §2

Structure (SMILES) | Major Response (count), Control lesion (herpes lesions) | No Response (count), Control lesion (herpes lesions) | Some Response (count), Control lesion (herpes lesions) | Major Response (count), Treated lesion (herpes lesions) | No Response (count), Treated lesion (herpes lesions) | Some Response (count), Treated lesion (herpes lesions) | Outcome of unassisted topically treated lesions (herpes lesions) | Outcome of iontophoretically treated lesions (herpes lesions) | No response (count, Stage 1 treatment results) [1] | Some response (count, Stage 1 treatment results) [1] | Major response (count, Stage 1 treatment results) [1]
Nc1nc2c(ncn2COCCO)c(=O)[nH]1 [ACYCLOVIR ®, 2-amino-1,9-dihydro-9-[(2-hydroxyethoxy)methyl]-6H-purin-6-one] | 0 | 1 | 0 | 1 | 0 | 0 | none of the unassisted topically treated lesions demonstrated a similar response | resolution in 24 hours | 1 | 3 | 42
O=c1[nH]c(=O)n([C@H]2C[C@H](O)[C@@H](CO)O2)cc1I [IUDR, 5-iodo-2 deoxyuridine] | 0 | 5 | 2 | 7 | 0 | 0 | none of the unassisted topically treated lesions demonstrated a similar response | resolution in 24 hours | 1 | 1 | 26

From patent US6385487B1, “Methods for electrokinetic delivery of medicaments” (Biophoretic Therapeutic Systems, LLC, priority 1996, dated 2002)
